Measured values as given in patent publication US20170362283A1, “NISIN-BASED COMPOUNDS AND USE THEREOF IN THE TREATMENT OF BACTERIAL INFECTIONS” (UNIVERSITEIT UTRECHT HOLDING B.V., priority 2015, published 2017).
Converted amounts (≈) assume the structure as drawn. Where two headings read alike, the source gives them in different places.

Tests used:
[1] = test system: B. subtilis; conditions: duplicate experiments
Protocol: (§1) Determining the MIC value is a standard technique well known to the skilled person, in particular the MIC value can be measured using method M07-A9 (CLSI standard, January 2012, Vol. 32, No. 2, “Methods for Dilution Antimicrobial Susceptibility Tests for Bacteria That Grow Aerobically”).
(§2) Different microorganisms (from glycerol stock) were plated out on blood agar and incubated at 37° C. for 24 hours. A colony was selected and 2×5 mL of TSB was inoculated. The samples and a sterile control were cultured for 16-20 hours at 37° C. Comparative compound B is nisin acting as a control. […] Comparative compounds A, D and E are also control compounds not part of the present invention.
(§3) The overnight cultures were diluted to 0.5×10^6 CFU in TSB. 50 μL of the bacterial solution was added to each well and the plates were sealed with an adhesive membrane and incubated at 37° C. for 16 hours. The next day, the plates were visually inspected for bacterial growth.

[2] = test system: E. coli; conditions: duplicate experiments
Protocol: as §1, §2, §3

[3] = test system: S. aureus; conditions: duplicate experiments
Protocol: as §1, §2, §3

[4] = test system: M. luteus; assay type: cell-based; conditions: duplicate experiments
Protocol: as §1
(§4) Different microorganisms (from glycerol stock) were plated out on blood agar and incubated at 37° C. for 24 hours. A colony was selected and 2×5 mL of TSB was inoculated. The samples and a sterile control were cultured for 16-20 hours at 37° C. Comparative compound B is nisin acting as a control. Comparative compound C is vancomycin, also acting as a control. Comparative compounds A, D and E are also control compounds not part of the present invention.
as §3

[5] = test system: VRE 155; assay type: cell-based; conditions: duplicate experiments
Protocol: as §1, §4, §3

[6] = test system: MRSA USA300; assay type: cell-based, Staphylococcus aureus; conditions: duplicate experiments
Protocol: as §1, §4, §3

[7] = test system: MRSA WKZ2; assay type: cell-based, Staphylococcus aureus; conditions: duplicate experiments
Protocol: as §1, §4, §3

[8] = Serum stability; assay type: in vitro ADME; conditions: human serum, 37° C., after 24 hours; read-out: stability in human serum, remained intact
Protocol: 2 mg/mL peptide solutions were prepared in 26% DMSO in MilliQ. Duplicate samples were prepared with […] peptide solution and […] human serum, making the final DMSO concentration 2%. The samples were incubated at 37° C., and samples were taken at t=0, 1, 2, 4 and 24 hours as follows: to 100 μL serum solution, 200 μL MeOH (containing 0.075 mg/mL ethylparaben as an internal standard) was added to precipitate the proteins. The sample was vortexed briefly and allowed to stand for 10 min at RT. The samples were then centrifuged at 13,000 rpm for 5 min, and the supernatant was taken and stored at −20° C. until analysis. Each sample was analyzed by HPLC on a C4 column. The peaks were integrated and normalized to the internal standard.

[9] = test system: thirty VRE strains

## C=C1NC(=O)[C@H]([C@@H](C)CC)NC(=O)[C@H](NC(=O)C(=CC)NC(=O)[C@@H](N)[C@@H](C)CC)CSC[C@@H](C(=O)N[C@H]2C(=O)N3CCC[C@H]3C(=O)NCC(=O)N[C@H](C(=O)N[C@@H](CCCCN)C(=O)NCCCCCC)CS[C@H]2C)NC(=O)[C@H](CC(C)C)NC1=O [(2)]
[1]
  MIC values B. subtilis: 32 µg/mL (≈ 25.9 µM)
[2]
  MIC values E. coli: >64 µg/mL
[3]
  MIC values S. aureus: >64 µg/mL
[4]
  MIC values M. luteus: 2 µg/mL (≈ 1.62 µM)

## C=C1NC(=O)[C@H]([C@@H](C)CC)NC(=O)[C@H](NC(=O)C(=CC)NC(=O)[C@@H](N)[C@@H](C)CC)CSC[C@@H](C(=O)N[C@H]2C(=O)N3CCC[C@H]3C(=O)NCC(=O)N[C@H](C(=O)N[C@@H](CCCCN)C(=O)NCCCCCCCCCC)CS[C@H]2C)NC(=O)[C@H](CC(C)C)NC1=O [(6)]
[1]
  MIC values B. subtilis: 4 to 8 µg/mL
[2]
  MIC values E. coli: 64 µg/mL (≈ 49.6 µM)
[3]
  MIC values S. aureus: 16 µg/mL (≈ 12.4 µM)
[4]
  MIC values M. luteus: 2 µg/mL (≈ 1.55 µM)
[5]
  MIC values VRE 155: 8 µg/mL (≈ 6.2 µM)
[6]
  MIC values MRSA USA300: 16 µg/mL (≈ 12.4 µM)
[7]
  MIC values MRSA WKZ2: 16 µg/mL (≈ 12.4 µM)
[8]
  remaining at 24 h, 0.15 mg/mL: 94%

## C=C1NC(=O)[C@H]([C@@H](C)CC)NC(=O)[C@H](NC(=O)C(=CC)NC(=O)[C@@H](N)[C@@H](C)CC)CSC[C@@H](C(=O)N[C@H]2C(=O)N3CCC[C@H]3C(=O)NCC(=O)N[C@H](C(=O)N[C@@H](CCCCN)C(=O)NCCCCCCCCCCCCCC)CS[C@H]2C)NC(=O)[C@H](CC(C)C)NC1=O [(10)]
[1]
  MIC values B. subtilis: 4 µg/mL (≈ 2.97 µM)
[2]
  MIC values E. coli: >64 µg/mL
[3]
  MIC values S. aureus: 16 µg/mL (≈ 11.9 µM)
[4]
  MIC values M. luteus: 1 to 2 µg/mL
[5]
  MIC values VRE 155: 4 µg/mL (≈ 2.97 µM)
[6]
  MIC values MRSA USA300: 64 µg/mL (≈ 47.6 µM)
[7]
  MIC values MRSA WKZ2: 32 µg/mL (≈ 23.8 µM)
[8]
  remaining at 24 h, 0.15 mg/mL: > 50%
[9]; VRE strain E0013, GBR, vanA
  MIC: 4 µg/mL (≈ 2.97 µM)
[9]; VRE strain E0072, NLD, vanA
  MIC: 2 µg/mL (≈ 1.49 µM)
[9]; VRE strain E0300, USA, vanA
  MIC: 8 to 16 µg/mL
[9]; VRE strain E0321, FRA, vanA
  MIC: 2 µg/mL (≈ 1.49 µM)
[9]; VRE strain E0333, ISR, vanA
  MIC: 4 µg/mL (≈ 2.97 µM)
[9]; VRE strain E0338, ITA, vanA
  MIC: 4 µg/mL (≈ 2.97 µM)
[9]; VRE strain E0341, GBR, vanA
  MIC: 4 µg/mL (≈ 2.97 µM)
[9]; VRE strain E0506, AUS, vanA
  MIC: 8 µg/mL (≈ 5.94 µM)
[9]; VRE strain E0745, NLD, vanA
  MIC: 4 µg/mL (≈ 2.97 µM)
[9]; VRE strain E1130, USA, vanA
  MIC: 4 µg/mL (≈ 2.97 µM)
[9]; VRE strain E1441, GRC, vanA
  MIC: 4 µg/mL (≈ 2.97 µM)
[9]; VRE strain E1679, BRA, vanA
  MIC: 4 µg/mL (≈ 2.97 µM)
[9]; VRE strain E1763, BEL, vanA
  MIC: 8 µg/mL (≈ 5.94 µM)
[9]; VRE strain E2297, USA, vanA
  MIC: 2 µg/mL (≈ 1.49 µM)
[9]; VRE strain E2359, SGP, vanB
  MIC: 2 µg/mL (≈ 1.49 µM)
[9]; VRE strain E2365, HUN, vanB
  MIC: 1 µg/mL (≈ 0.743 µM)
[9]; VRE strain E2373, SRB, vanA
  MIC: 4 µg/mL (≈ 2.97 µM)
[9]; VRE strain E6016, LVA, vanA
  MIC: 2 to 4 µg/mL
[9]; VRE strain E7312, NLD, vanA
  MIC: 2 µg/mL (≈ 1.49 µM)
[9]; VRE strain E7314, NLD, vanB
  MIC: 4 µg/mL (≈ 2.97 µM)
[9]; VRE strain E7319, NLD, vanA
  MIC: 2 µg/mL (≈ 1.49 µM)
[9]; VRE strain E7329, NLD, vanA
  MIC: 2 µg/mL (≈ 1.49 µM)
[9]; VRE strain E7401, NLD, vanB
  MIC: 4 µg/mL (≈ 2.97 µM)
[9]; VRE strain E7403, NLD, vanB
  MIC: 1 µg/mL (≈ 0.743 µM)
[9]; VRE strain E7413, NLD, vanA
  MIC: 4 µg/mL (≈ 2.97 µM)
[9]; VRE strain E7424, NLD, vanB
  MIC: 1 to 2 µg/mL
[9]; VRE strain E7464, NLD, vanB
  MIC: 4 µg/mL (≈ 2.97 µM)
[9]; VRE strain E8218, NLD, vanB
  MIC: 2 µg/mL (≈ 1.49 µM)
[9]; VRE strain E8235, NLD, vanB
  MIC: 4 µg/mL (≈ 2.97 µM)
[9]; VRE strain E8237, NLD, vanA
  MIC: 8 µg/mL (≈ 5.94 µM)

## C=C1NC(=O)[C@H]([C@@H](C)CC)NC(=O)[C@H](NC(=O)C(=CC)NC(=O)[C@@H](N)[C@@H](C)CC)CSC[C@@H](C(=O)N[C@H]2C(=O)N3CCC[C@H]3C(=O)NCC(=O)N[C@H](C(=O)N[C@@H](CCCCN)C(=O)NC/C=C(\C)CC/C=C(\C)CCC=C(C)C)CS[C@H]2C)NC(=O)[C@H](CC(C)C)NC1=O [(12)]
[1]
  MIC values B. subtilis: 4 µg/mL (≈ 2.95 µM)
[2]
  MIC values E. coli: >64 µg/mL
[3]
  MIC values S. aureus: 8 µg/mL (≈ 5.91 µM)
[4]
  MIC values M. luteus: 2 µg/mL (≈ 1.48 µM)
[5]
  MIC values VRE 155: 8 µg/mL (≈ 5.91 µM)
[6]
  MIC values MRSA USA300: 16 µg/mL (≈ 11.8 µM)
[7]
  MIC values MRSA WKZ2: 16 µg/mL (≈ 11.8 µM)
[8]
  remaining at 24 h, 0.15 mg/mL: > 50%
